Experimental data published in patent publication US12414559B2, “Mixtures and compositions comprising 5-fluoro-4-imino-3-methyl-1-tosyl-3,4-dihydropyrimidin-2-one, and methods of use thereof” (Adama Makhteshim Ltd., priority 2018, dated 2025).

Experiment: Chemical stability on storage: concentration / degradation of compound of Formula I in the composition
Assay type: physicochemical
Conditions: after 8 weeks of storage at 40° C.
Excerpt: As used herein, the term “stable” when used in connection with chemical stability, e.g, chemically stable, means that the composition meets the chemical stability standards set forth by the Food and Agriculture Organization of the United Nations (FAO) in the Manual on Development and Use of FAO and WHO Specification for Pesticides (First Edition—Third Revision) (the “FAO/WHO Manual”) (available at http://www.fao.gov/agriculture/crops/thematic-sitemap/theme/pests/jmps/manual/en/), the entire content of which is hereby incorporate by reference into the subject application. […] The amount of degradation permitted before the degradation is considered to be significant depends on the concentration of the active ingredients in the composition.
The physical and chemical stability of composition of Example were tested under various conditions including CIPAC conditions.

degradation of the compound of Formula I (with Attagel 50 (0.5% by weight) and Bentone SD-1 (0.5% by weight)): 4%
degradation of the compound of Formula I (without Attagel 50 and Bentone SD-1): 7-8%
SMILES: Cc1ccc(S(=O)(=O)n2cc(F)c(=N)n(C)c2=O)cc1 [compound of Formula I, 5-fluoro-4-imino-3-methyl-1-tosyl-3,4-dihydropyrimidin-2(1H)-one]
